The values below are quoted from earlier work in article PMC9841982 (ACS Medicinal Chemistry Letters, 2022).

SMILES strings stand for the structures.

For data set [1] the following is noted: authors' earlier work with TAK-242.
In data set [2] the test system is murine pancreatic islets. Conditions: free TAK-242, murine islet transplantation.

`CCOC(=O)C1=CCCC[C@H]1S(=O)(=O)Nc1ccc(F)cc1Cl` [TAK-242, ethyl (6R)-6-[N-(2-Chloro-4-fluorophenyl)sulfamoyl]cyclohex-1-ene-1-carboxylate]: in data set [1], the sulfonamide bond stability result is reported as “relatively stable”. Further, in data set [2], the “effect of free drug on islets and transplant outcome” value was “reduced sterile inflammation-mediated stress in islets during isolation and promoted successful transplant outcomes”.
